# Measured values published in ChEMBL document CHEMBL3044916, “Attract-and-kill: a new strategy for the management of the potato tuber moths Phthorimaea operculella (Zeller) and Symmetrischema tangolias (Gyen) in potato: laboratory experiments towards optimising pheromone and insecticide concentration” (2010).
# Active and inactive are the calls of the source. No cut-off for these calls is given here.
# How the values were obtained:
# [1] = system: Symmetrischema tangolias; test: Insecticidal activity against Symmetrischema tangolias assessed as mortality at 0.35 g/l after 24 hr; assay type: functional
# [2] = system: Phthorimaea operculella; test: Insecticidal activity against Phthorimaea operculella assessed as mortality at 5 g/l after 24 hr by attract-and-kill assay; assay type: functional, organism-based
# [3] = system: Phthorimaea operculella; test: Insecticidal activity against Phthorimaea operculella assessed as mortality at 1.25 g/l after 48 hr; assay type: functional
# [4] = system: Symmetrischema tangolias; test: Insecticidal activity against Symmetrischema tangolias assessed as mortality at 5 g/l after 3 days by cage bio assay relative to control; assay type: functional; settings: 72 h
# [5] = system: Symmetrischema tangolias; test: Insecticidal activity against Symmetrischema tangolias assessed as mortality at 0.35 g/l after 48 hr; assay type: functional
# [6] = system: Symmetrischema tangolias; test: Insecticidal activity against Symmetrischema tangolias assessed as mortality at 5 g/l after 48 hr; assay type: functional
# [7] = system: Symmetrischema tangolias; test: Insecticidal activity against Symmetrischema tangolias assessed as mortality at 1.25 g/l after 24 hr; assay type: functional
# [8] = system: Symmetrischema tangolias; test: Insecticidal activity against Symmetrischema tangolias assessed as mortality at 2.5 g/l after 48 hr; assay type: functional
# [9] = system: Symmetrischema tangolias; test: Insecticidal activity against Symmetrischema tangolias assessed as mortality at 5 g/l after 8 days by cage bio assay relative to control; assay type: functional; settings: 192 h
# [10] = system: Phthorimaea operculella; test: Insecticidal activity against Phthorimaea operculella assessed as mortality at 5 g/l after 48 hr; assay type: functional
# [11] = system: Phthorimaea operculella; test: Insecticidal activity against Phthorimaea operculella assessed as mortality at 5 g/l after 4 days by attract-and-kill assay relative to control; assay type: functional; settings: 96 h
# [12] = system: Phthorimaea operculella; test: Insecticidal activity against Phthorimaea operculella assessed as mortality at 5 g/l after 36 days by cage bio assay relative to control; assay type: functional; settings: 864 h
# [13] = system: Symmetrischema tangolias; test: Insecticidal activity against Symmetrischema tangolias assessed as mortality at 5 g/l after 24 hr by attract-and-kill assay; assay type: functional, organism-based
# [14] = system: Phthorimaea operculella; test: Insecticidal activity against Phthorimaea operculella assessed as mortality at 0.65 g/l after 48 hr; assay type: functional
# [15] = system: Symmetrischema tangolias; test: Insecticidal activity against Symmetrischema tangolias assessed as mortality at 5 g/l after 24 hr; assay type: functional
# [16] = system: Symmetrischema tangolias; test: Insecticidal activity against Symmetrischema tangolias assessed as mortality at 5 g/l after 36 days by cage bio assay relative to control; assay type: functional; settings: 864 h
# [17] = system: Phthorimaea operculella; test: Insecticidal activity against Phthorimaea operculella assessed as mortality at 5 g/l after 3 days by cage bio assay relative to control; assay type: functional; settings: 72 h
# [18] = system: Phthorimaea operculella; test: Insecticidal activity against Phthorimaea operculella assessed as mortality at 5 g/l after 6 days by cage bio assay relative to control; assay type: functional; settings: 144 h
# [19] = system: Phthorimaea operculella; test: Insecticidal activity against Phthorimaea operculella assessed as mortality at 5 g/l after 24 hr; assay type: functional
# [20] = system: Symmetrischema tangolias; test: Insecticidal activity against Symmetrischema tangolias assessed as mortality at 5 g/l after 4 days by attract-and-kill assay relative to control; assay type: functional; settings: 96 h
# [21] = system: Phthorimaea operculella; test: Insecticidal activity against Phthorimaea operculella assessed as mortality at 2.5 g/l after 24 hr; assay type: functional
# [22] = system: Symmetrischema tangolias; test: Insecticidal activity against Symmetrischema tangolias assessed as mortality at 5 g/l after 24 hr by attract-and-kill assay relative to control; assay type: functional
# [23] = system: Symmetrischema tangolias; test: Insecticidal activity against Symmetrischema tangolias assessed as mortality at 1.25 g/l after 48 hr; assay type: functional
# [24] = system: Phthorimaea operculella; test: Insecticidal activity against Phthorimaea operculella assessed as mortality at 0.65 g/l after 24 hr; assay type: functional
# [25] = system: Phthorimaea operculella; test: Insecticidal activity against Phthorimaea operculella assessed as mortality at 2.5 g/l after 48 hr; assay type: functional
# [26] = system: Symmetrischema tangolias; test: Insecticidal activity against Symmetrischema tangolias assessed as mortality at 0.65 g/l after 48 hr; assay type: functional
# [27] = system: Phthorimaea operculella; test: Insecticidal activity against Phthorimaea operculella assessed as mortality at 5 g/l after 24 hr by attract-and-kill assay relative to control; assay type: functional
# [28] = system: Phthorimaea operculella; test: Insecticidal activity against Phthorimaea operculella assessed as mortality at 0.35 g/l after 24 hr; assay type: functional
# [29] = system: Symmetrischema tangolias; test: Insecticidal activity against Symmetrischema tangolias assessed as mortality at 0.65 g/l after 24 hr; assay type: functional
# [30] = system: Phthorimaea operculella; test: Insecticidal activity against Phthorimaea operculella assessed as mortality at 0.35 g/l after 48 hr; assay type: functional
# [31] = system: Phthorimaea operculella; test: Insecticidal activity against Phthorimaea operculella assessed as mortality at 1.25 g/l after 24 hr; assay type: functional
# [32] = system: Symmetrischema tangolias; test: Insecticidal activity against Symmetrischema tangolias assessed as mortality at 2.5 g/l after 24 hr; assay type: functional
smiles,measurement,setting,value
CC1(C)C(C=C(Cl)Cl)C1C(=O)OC(C#N)c1ccc(F)c(Oc2ccccc2)c1 (configuration not stated) [CYFLUTHRIN],mortality at 350 µg/mL,[1],10.5%
same,Activity,[2],Active
same,mortality at 1250 µg/mL,[3],63.2%
same,mortality at 5000 µg/mL,[4],100%
same,mortality at 350 µg/mL,[5],22.2%
same,mortality at 5000 µg/mL,[6],77.7%
same,mortality at 1250 µg/mL,[7],15.6%
same,mortality at 2500 µg/mL,[8],68.3%
same,mortality at 5000 µg/mL,[9],100%
same,mortality at 5000 µg/mL,[10],84.2%
same,mortality at 5000 µg/mL,[11],100%
same,mortality at 5000 µg/mL,[12],44%
same,Activity,[13],Active
same,mortality at 650 µg/mL,[14],47.4%
same,mortality at 5000 µg/mL,[15],59.4%
same,mortality at 5000 µg/mL,[16],53%
same,mortality at 5000 µg/mL,[17],100%
same,mortality at 5000 µg/mL,[18],100%
same,mortality at 5000 µg/mL,[19],57.9%
same,mortality at 5000 µg/mL,[20],100%
same,mortality at 2500 µg/mL,[21],47.4%
same,mortality at 5000 µg/mL,[22],40%
same,mortality at 1250 µg/mL,[23],42.2%
same,mortality at 650 µg/mL,[24],26.3%
same,mortality at 2500 µg/mL,[25],63.2%
same,mortality at 650 µg/mL,[26],31.6%
same,mortality at 5000 µg/mL,[27],40%
same,mortality at 350 µg/mL,[28],21.1%
same,mortality at 650 µg/mL,[29],26.6%
same,mortality at 350 µg/mL,[30],31.6%
same,mortality at 1250 µg/mL,[31],38.8%
same,mortality at 2500 µg/mL,[32],52.7%
